Assay results taken from paper PMC8365602 (Journal of Medicinal Chemistry, 2021).
Read-outs that look alike come from different tables or passages of the source.

Assays:
[1] = target: T1, 5-LOX (Homo sapiens, UniProt P09917); assay: 5-LOX product formation in activated PMNL;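 further: freshly isolated human PMNL in PBS pH 7.4 plus glucose, preincubated 10 min at 37 °C with compound, 5-LOX products (all-trans LTB4 isomers, 5-HETE) quantified by RP-HPLC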
T1 sequence (P09917 1-674): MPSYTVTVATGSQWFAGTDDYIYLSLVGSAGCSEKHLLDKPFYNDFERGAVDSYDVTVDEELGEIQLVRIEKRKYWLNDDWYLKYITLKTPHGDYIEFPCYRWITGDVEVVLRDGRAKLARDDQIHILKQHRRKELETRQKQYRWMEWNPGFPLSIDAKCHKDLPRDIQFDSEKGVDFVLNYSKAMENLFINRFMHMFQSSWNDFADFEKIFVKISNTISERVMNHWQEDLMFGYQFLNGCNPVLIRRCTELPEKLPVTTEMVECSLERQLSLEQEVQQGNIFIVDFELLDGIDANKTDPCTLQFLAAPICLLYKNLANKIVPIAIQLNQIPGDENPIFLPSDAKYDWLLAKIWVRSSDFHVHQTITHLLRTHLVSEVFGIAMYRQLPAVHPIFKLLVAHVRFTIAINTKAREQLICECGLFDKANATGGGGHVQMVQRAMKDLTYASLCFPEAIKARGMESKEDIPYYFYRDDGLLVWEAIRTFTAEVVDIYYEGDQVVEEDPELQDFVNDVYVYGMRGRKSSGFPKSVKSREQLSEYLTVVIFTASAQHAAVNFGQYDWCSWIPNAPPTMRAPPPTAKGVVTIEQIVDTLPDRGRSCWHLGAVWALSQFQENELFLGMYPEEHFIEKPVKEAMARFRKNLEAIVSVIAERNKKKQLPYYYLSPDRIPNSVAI
Method: These volunteers regularly donated blood (every 8–12 weeks) and were physically inspected by a clinician.
Erythrocytes were removed by dextran sedimentation and hypotonic lysis. PMNL were obtained from the cell pellet and platelets from the supernatant.
Freshly isolated PMNL (5 × 10^6) suspended in PBS pH 7.4 with 1 mg/mL glucose or freshly withdrawn human whole blood were preincubated with the test compounds for 10 min (or as indicated) at 37 °C. […] The reaction was stopped with an equal volume of methanol.

[2] = target: T1, 5-LOX; assay: Cell-free 5-LOX activity (isolated human recombinant enzyme)
Method: Human recombinant 5-LOX was expressed in E. coli Bl21 (DE3) cells that were transformed with pT3–5LOX (wt 5-LOX), 5-LOX_3W (triple mutation of Trp102Ala/Trp13Ala/Trp75Ala), or 5-LOX_R (single mutant of the Arg101Asp plasmid) and purified on an ATP-agarose column (Econo-Pac, Bio-Rad, Hercules, CA) by affinity chromatography.[6],[75]
Purified 5-LOX (0.5 μg in PBS pH 7.4 containing 1 mM EDTA and 1 mM ATP) was preincubated with the vehicle (DMSO) or test compounds for 10 min and prewarmed at 37 °C.

[3] = PMNL, read-out: 5-LOX PMNL residual activity at 3 μM
[4] = read-out: 5-LOX PMNL IC50, 5-LOX product formation in activated PMNL, mean ± SEM
[5] = read-out: 5-LOX enzyme IC50, isolated human 5-LOX, cell-free, mean ± SEM
[6] = read-out: 5-LOX enzyme residual activity at 1 μM
[7] = read-out: 5-LOX enzyme residual activity at 1 µM (Table S1)

## CC(=O)c1cc2c3c(c(C)cc2oc1=O)O[C@](C)(CC/C=C(\C)CC/C=C(\C)CCC=C(CO)CO)CC3 [Compound 42, (R)-2-Acetyl-8-((3E,7E)-13-hydroxy-12-(hydroxymethyl)-4,8-dimethyltrideca-3,7,11-trien-1-yl)-6,8-dimethyl-9,10-dihydropyrano[3,2-f]chromen-3(8H)-one]
[1]; [3]
  remaining activity at 3 µM: 15.3 ± 6.9%
[1]; [4]
  IC50: 1440 ± 420 nM
[2]; [5]
  IC50: 210 ± 20 nM
[2]; [6]
  remaining activity at 1 µM: 23.3 ± 2.3%

## C/C(=C\CC[C@]1(C)CCc2cc(O)cc(C)c2O1)CCC=C(CO)CO [Compound 28, (R,E)-2-(7-(6-Hydroxy-2,8-dimethylchroman-2-yl)-4-methylhept-4-en-1-ylidene)propane-1,3-diol]
[1]; [3]
  remaining activity at 3 µM: 36.3 ± 6.5%
[1]; [4]
  IC50: 2300 ± 260 nM
[2]; [5]
  IC50: 170 ± 30 nM
[2]; [6]
  remaining activity at 1 µM: 15 ± 2.4%

## Cc1cc(O)cc2c1O[C@](C)(CC/C=C/C(=O)O)CC2 [Compound 17, (2E)-5-[(2R)-6-Hydroxy-2,8-dimethyl-3,4-dihydro-2H-1-benzopyran-2-yl]pent-2-enoic Acid]
[1]; [3]
  remaining activity at 3 µM: 101 ± 5.2%
[1]; [4]
  IC50: > 3000 nM
[2]; [5]
  IC50: > 1000 nM
[2]; [6]
  remaining activity at 1 µM: 65.3 ± 25.2%

## C/C(=C\CC/C(C)=C/CC[C@]1(C)CCc2cc(O)cc(C)c2O1)CC/C=C(/C=O)CO [Compound 11]
[1]
  IC50: 570 ± 90 nM
[1]; PMNL, read-out: 5-LOX PMNL residual activity at 1 µM (Table S1, cell marked b)
  remaining activity at 1 µM: 17.6 ± 1.3%
[2]
  IC50: 120 ± 50 nM
[2]; [7]
  remaining activity at 1 µM: 0.4 ± 0.3%

## CCOC(=O)c1cc2c3c(c(C)cc2oc1=O)O[C@](C)(CC/C=C(\C)CC/C=C(\C)CCC=C(CO)CO)CC3 [Compound 43, Ethyl-(R)-8-((3E,7E)-13-hydroxy-12-(hydroxymethyl)-4,8-dimethyltrideca-3,7,11-trien-1-yl)-6,8-dimethyl-3-oxo-3,8,9,10-tetrahydropyrano[3,2-f]chromene-2-carboxylate]
[1]; [3]
  remaining activity at 3 µM: 8.1 ± 1%
[1]; [4]
  IC50: 1580 ± 210 nM
[2]; [5]
  IC50: 470 ± 140 nM
[2]; [6]
  remaining activity at 1 µM: 29.3 ± 2.6%

## C/C(=C\CC/C(C)=C/CC[C@]1(C)CCc2c(CN3CCOCC3)c(O)cc(C)c2O1)CCC=C(CO)CO [Compound 37, 2-((4E,8E)-11-((R)-6-Hydroxy-2,8-dimethyl-5-(morpholinomethyl)chroman-2-yl)-4,8-dimethylundeca-4,8-dien-1-ylidene)propane-1,3-diol]
[1]; [3]
  remaining activity at 3 µM: 11.3 ± 3.3%
[1]; [4]
  IC50: 1740 ± 90 nM
[2]; [5]
  IC50: 120 ± 30 nM
[2]; [6]
  remaining activity at 1 µM: 3.9 ± 0.6%

## C/C(=C\CC/C(C)=C/CC[C@]1(C)CCc2cc(O)cc(C)c2O1)CC/C=C/C(=O)O [Compound 14, (2E,6E,10E)-13-[(2R)-6-Hydroxy-2,8-dimethyl-3,4-dihydro-2H-1-benzopyran-2-yl]-6,10-dimethyltrideca-2,6,10-trienoic Acid]
[1]; [3]
  remaining activity at 3 µM: 26.9 ± 4.8%
[1]; [4]
  IC50: 2200 ± 140 nM
[2]; [5]
  IC50: 440 ± 80 nM
[2]; [6]
  remaining activity at 1 µM: 24.5 ± 2.8%

## CC(=O)c1cc2c(C)c3c(c(C)c2oc1=O)CC[C@@](C)(CC/C=C(\C)CC/C=C(\C)CCC=C(CO)CO)O3 [Compound 41, (R)-3-Acetyl-7-((3E,7E)-13-hydroxy-12-(hydroxymethyl)-4,8-dimethyltrideca-3,7,11-trien-1-yl)-5,7,10-trimethyl-8,9-dihydropyrano[2,3-g]chromen-2(7H)-one]
[1]; [3]
  remaining activity at 3 µM: 12.4 ± 0.7%
[1]; [4]
  IC50: 1250 ± 200 nM
[2]; [5]
  IC50: 630 ± 130 nM
[2]; [6]
  remaining activity at 1 µM: 35.1 ± 5.7%

## C/C(=C\CC[C@]1(C)CCc2c(C)c(O)cc(C)c2O1)CC/C=C(\C)CCCC(C)C(=O)O (stereo partly drawn) [Compound 19a, (6E,10E)-13-((R)-6-Hydroxy-2,5,8-trimethylchroman-2-yl)-2,6,10-trimethyltrideca-6,10-dienoic Acid]
[1]; [3]
  remaining activity at 3 µM: 14.2 ± 6.5%
[1]; [4]
  IC50: 810 ± 330 nM
[2]; [5]
  IC50: 810 ± 80 nM
[2]; [6]
  remaining activity at 1 µM: 41.2 ± 6.2%

## C/C(=C\CC[C@]1(C)CCc2cc(O)cc(C)c2O1)CC/C=C(\C)CCCC(C)C(=O)O (stereo partly drawn) [Compound 19b, (6E,10E)-13-((R)-6-Hydroxy-2,8-dimethylchroman-2-yl)-2,6,10-trimethyltrideca-6,10-dienoic Acid]
[1]; [3]
  remaining activity at 3 µM: 3.8 ± 0.8%
[1]; [4]
  IC50: 610 ± 150 nM
[2]; [6]
  remaining activity at 1 µM: 7.4 ± 2.7%

## Cc1c(C=O)c(O)c(Cl)c2c1O[C@](C)(CCC[C@H](C)CCC[C@H](C)CCCC(C)C)CC2 [Compound 2, (R)-5-Chloro-6-hydroxy-2,8-dimethyl-2-((4R,8R)-4,8,12-trimethyltridecyl)chromane-7-carbaldehyde]
[1]
  IC50: > 3000 nM
[1]; PMNL, read-out: 5-LOX PMNL residual activity at 3 µM (Table S1)
  remaining activity at 3 µM: 110 ± 10.7%
[2]
  IC50: > 1000 nM
[2]; [7]
  remaining activity at 1 µM: 72.9 ± 5.6%

## C/C(=C\CC/C(C)=C/CC[C@]1(C)CCc2c(C)c(O)c(C=O)c(C)c2O1)CCC=C(CO)CO [Compound 33]
[1]; [3]
  remaining activity at 3 µM: 7.5 ± 2.2%
[1]; [4]
  IC50: 1380 ± 280 nM
[2]; [5]
  IC50: 170 ± 50 nM
[2]; [6]
  remaining activity at 1 µM: 8.9 ± 3.5%
